“And” between values parts separate entries of the source, which are not always exact repeats. Equal entries are not always repeated. Where two headings read alike, the source gives them in different places. Marks after values point to notes of the source that are not given here.
Tests used:
[1] = system: WM793 primary melanoma cells; assay: LDH cytotoxicity assay, WM793; type: cell-based; settings: Homo sapiens, LDH test, read-out: Cytotoxic activity expressed as IC50
Protocol: (§1) The cytotoxic activity was tested on human cancer and normal cell lines, grouped in several panels: skin (malignant melanoma HTB-140, malignant melanoma A375, melanoma WM793, and normal keratinocytes HaCaT), prostate (prostate carcinoma DU-145, prostate carcinoma PC3, and prostate epithelial cells PNT2), thyroid (thyroid carcinoma FTC133, thyroid carcinoma, undifferentiated 8505C), gastrointestinal panel (hepatocellular carcinoma HepG2, colon adenocarcinoma Caco-2, and colon adenocarcinoma HT29), and single line of lung carcinoma A549. Cells were grown at standard conditions (37 °C, 5% CO2, relative humidity) and culture media (DMEM/F12 for PNT2, WM793, HT29, A549; DMEM Low Glucose for DU-145; DMEM High Glucose for A375, HaCaT, A549; MEM with NEAA for Caco-2), supplemented with 10% fetal bovine serum (FBS) and 1% antibiotic solution (10,000 U penicillin and 10 mg streptomycin/mL). All cell lines, cell culture media, and supplements were from Merck (Seelze, Germany).
(§2) Before the experiment, cells were seeded onto 96-well plates for 24 h, at a density of 1.5 × 10^4 cells/ well. Then the tested compounds (5–100 μg/mL) were added and incubated for 24 and 48 h. Cell viability was measured with the lactate dehydrogenase (LDH) assay by Clontech (Clontech, Mountain View, CA, USA), as described previously. The absorbance was measured at 490 nm using a Biotek Synergy microplate reader (BioTek Instruments Inc., Winooski, VT, USA). Cell viability was expressed as a percentage of dead cells. Each experiment was conducted in triplicate. Doxorubicin was used as a reference cytostatic.
(§3) The results were expressed as mean (±SD). Data were analyzed using Statistica v.13.3 (StatSoft, Tulsa, OK, USA). The IC50 values were calculated using OriginPro 2020b (64-bit) 9.7.5.184 (Academic) (OriginLab Corporation, Northampton, MA, USA). One-way analysis of variance (ANOVA) and the post-hoc Tukey multiple comparison test were used. The statistical significance was defined at the probability level of p < 0.05. Principal component analysis (PCA) and hierarchical cluster analysis (HCA) were performed using Statistica v.13.3 (StatSoft, Tulsa, OK, USA). Prior to PCA, the Bartlett’s sphericity test was conducted, and the Kaiser-Meyer-Olkin Measure of Sampling Adequacy index (KMO) was examined. In the simple model, for each compound tested (1–4), the cell lines were the cases, and the different concentrations of the compound were the parameters. This was followed by a PCA model in which the cell lines were the parameters, and the compounds (at different concentrations) were the cases. All PCA models were based on a correlation matrix. Hierarchical cluster analysis (CA) based on standardized data was performed using Ward’s method and Euclidean distance. The results were grouped based on Mojena’s rule.

[2] = system: A549 lung carcinoma cells; assay: LDH cytotoxicity assay, A549; type: cell-based, human; settings: LDH test; for IC50: Homo sapiens, read-out: Cytotoxic activity expressed as IC50
Protocol: as §1, §2, §3

[3] = LDH cytotoxicity assay, HaCaT; type: cell-based, human; settings: human, HaCaT normal keratinocytes, HaCaT normal cells, LDH test, read-out: Cytotoxic activity expressed as IC50
Protocol: as §1, §2, §3

[4] = system: HaCaT normal keratinocytes; assay: LDH cytotoxicity assay, HaCaT; type: cell-based, human; settings: HaCaT normal cells, 48 h incubation, LDH test
Protocol: as §1, §2, §3

[5] = system: PNT2 prostate epithelial cells; assay: LDH cytotoxicity assay, PNT2; type: cell-based, human; settings: normal prostate epithelial cells
Protocol: as §1, §2, §3

[6] = LDH cytotoxicity assay, PNT2; type: cell-based, human; settings: human, PNT2 prostate epithelial cells (normal), PNT2 normal cells, LDH test, read-out: Cytotoxic activity expressed as IC50
Protocol: as §1, §2, §3

[7] = system: DU-145 metastatic prostate carcinoma cells; assay: LDH cytotoxicity assay, DU-145; type: cell-based, human; settings: for IC50: Homo sapiens, LDH test, read-out: Cytotoxic activity expressed as IC50
Protocol: as §1, §2, §3

[8] = system: HTB-140 malignant melanoma cells; assay: LDH cytotoxicity assay, HTB-140; type: cell-based; settings: Homo sapiens, LDH test, read-out: Cytotoxic activity expressed as IC50
Protocol: as §1, §2, §3

[9] = system: FTC133 follicular thyroid carcinoma cells; assay: LDH cytotoxicity assay, FTC133; type: cell-based; settings: Homo sapiens, FTC-133, LDH test, read-out: Cytotoxic activity expressed as IC50
Protocol: as §1, §2, §3

[10] = system: PC3 metastatic prostate carcinoma cells; assay: LDH cytotoxicity assay, PC3; type: cell-based; settings: Homo sapiens, LDH test, read-out: Cytotoxic activity expressed as IC50
Protocol: as §1, §2, §3

[11] = system: 8505C undifferentiated thyroid carcinoma cells; assay: LDH cytotoxicity assay, 8505C; type: cell-based; settings: Homo sapiens, LDH test, read-out: Cytotoxic activity expressed as IC50
Protocol: as §1, §2, §3

[12] = system: A375 malignant melanoma cells; assay: LDH cytotoxicity assay, A375; type: cell-based; settings: Homo sapiens, A-375, LDH test, read-out: Cytotoxic activity expressed as IC50
Protocol: as §1, §2, §3

[13] = system: HepG2 hepatocellular carcinoma cells; assay: LDH cytotoxicity assay, HepG2; type: cell-based; settings: Homo sapiens, LDH test, read-out: Cytotoxic activity expressed as IC50
Protocol: as §1, §2, §3

[14] = system: Caco-2 colon adenocarcinoma cells; assay: LDH cytotoxicity assay, Caco-2; type: cell-based; settings: Homo sapiens, LDH test, read-out: Cytotoxic activity expressed as IC50
Protocol: as §1, §2, §3

[15] = system: HT29 colon adenocarcinoma cells; assay: LDH cytotoxicity assay, HT29; type: cell-based; settings: Homo sapiens, HT-29, LDH test, read-out: Cytotoxic activity expressed as IC50
Protocol: as §1, §2, §3

CC1(C)CC[C@]2(C(=O)O[C@@H]3O[C@H](CO)[C@@H](O)[C@H](O)[C@H]3O)CC[C@]3(C)C(=CC[C@@H]4[C@@]5(C)CC[C@H](O[C@@H]6O[C@H](CO)[C@@H](O)[C@H](O[C@@H]7O[C@H](CO)[C@@H](O)[C@H](O)[C@H]7O)[C@H]6O)[C@@](C)(CO)[C@@H]5CC[C@]43C)[C@@H]2C1 [Compound 2]
IC50 ([1]; WM793, 24 h incubation): 14.4 µM and 13.8 µg/mL | IC50 ([1]; WM793, 48 h incubation): 6.79 µM and 6.52 µg/mL | Cytotoxic activity expressed as IC50 ([2]; A549, 48 h incubation): 8.23 ± 0.29 ^a µg/mL | IC50 ([2]; A549, 24 h, A549, 24 h incubation): 13.8 µM and 13.2 µg/mL | IC50 ([2]; A549, 48 h, A549, 48 h incubation): 8.58 µM and 8.24 µg/mL | IC50 at 24 h ([3]; 24 h incubation): 46.8 µM and 44.9 µg/mL | IC50 at 48 h ([3]; 48 h incubation): 41.6 µM and 39.9 µg/mL | Cytotoxic activity expressed as IC50 [4]: 39.93 ± 0.52 ^b µg/mL | IC50 ([5]; Homo sapiens, PNT2, incubation time not given, read-out: IC50 against normal prostate epithelial cells): > 100 µg/mL | Toxicity to normal prostate epithelial cells, in words [5]: non-toxic | IC50 at 24 h ([6]; 24 h incubation): > 100 µg/mL | IC50 at 48 h ([6]; 48 h incubation): > 100 µg/mL | Toxicity against DU-145, in words ([7]; DU-145): moderate toxicity | IC50 ([7]; DU-145, 24 h incubation): 33.3 µM and 32 µg/mL | IC50 ([7]; DU-145, 48 h incubation): 22 µM and 21.1 µg/mL | IC50 ([8]; HTB-140, 24 h incubation): > 100 µg/mL | IC50 ([8]; HTB-140, 48 h incubation): > 100 µg/mL | IC50 ([9]; FTC133, 24 h incubation): 42.9 µM and 41.1 µg/mL | IC50 ([9]; FTC133, 48 h incubation): 23.5 µM and 22.5 µg/mL | IC50 ([10]; PC3, 24 h incubation): > 100 µg/mL | IC50 ([10]; PC3, 48 h incubation): 69.8 µM and 67 µg/mL | IC50 ([11]; 24 h incubation): > 100 µg/mL | IC50 ([11]; 48 h incubation): > 100 µg/mL | IC50 ([12]; A375, 24 h incubation): 33.9 µM and 32.5 µg/mL | IC50 ([12]; A375, 48 h incubation): 31.4 µM and 30.1 µg/mL | IC50 ([13]; HepG2, 24 h incubation): 98 µM and 94 µg/mL | IC50 ([13]; HepG2, 48 h incubation): 63 µM and 60.5 µg/mL | IC50 ([14]; Caco-2, 24 h incubation): > 100 µg/mL | IC50 ([14]; Caco-2, 48 h incubation): 38.4 µM and 36.8 µg/mL | IC50 ([15]; HT29, 24 h incubation): > 100 µg/mL | IC50 ([15]; HT29, 48 h incubation): 66.5 µM and 63.8 µg/mL

From PMC12348107, “Saponins from Oxybasis rubra (L.) S.Fuentes, Uotila & Borsh: Comparative Assessment of Cytotoxic Potential Against a Wide Panel of Cancer Cell Lines” (Molecules, 2025)
